Usually kinetic solubility stands for solubility judged after dilution from a stock solution rather than from solid.

The structures appear in SMILES notation. Converted amounts (≈) assume the structure as drawn.

The conditions of the data set: buffer; pH 7.4; 200.0 µM.
`Cc1ccc(NC(=O)N2CCC(NC(=O)c3ccco3)CC2)cc1` returned a kinetic solubility greater than 49.1 µg/mL.
`COc1ccc(CCNC(=O)CSc2nc3scc(-c4ccccc4)c3c(=O)[nH]2)cc1` had a solubility (kinetic) of 2 µg/mL (≈ 4.43 µM).
Next, `COc1ccc(Cl)cc1NC(=O)c1cc(C)no1`: 5.7 µg/mL (≈ 21.4 µM); `O=C(NC1CCCN(CCc2ccccc2)C1)c1c(F)cccc1F` (stereo not given): greater than 51.7 µg/mL.
Then `CCOc1ccc(Nc2ccc(N3C(=O)CCC3=O)cc2[N+](=O)[O-])cc1`, with 2.3 µg/mL (≈ 6.47 µM); and `Cc1cccc2cc(CNC3CCCC3)c(Cl)nc12`, with greater than 41.2 µg/mL.
For `OC(CNCc1ccccc1C(F)(F)F)C(F)(F)F` (stereo not given), the solubility (kinetic) was greater than 43.1 µg/mL.
Next, `COc1ccc(N2C(=O)CC(N3CCCCC3)C2=O)cc1` (stereo not given): greater than 43.3 µg/mL; `O=C(COc1cccc(Cl)c1)NCc1ccccc1`: greater than 41.4 µg/mL.
With `CC(NC=O)c1nc2ccccc2n1CCc1ccccc1` (stereo not given), the solubility (kinetic) is 43.9 µg/mL (≈ 150 µM).
`COc1ccc2oc(C(=O)OCC(=O)NC(=O)c3ccccc3)c(C)c2c1`: the solubility (kinetic) worked out at 4.5 µg/mL (≈ 12.2 µM).
The compound `Cc1ccc2oc(=O)cc(CN3CCN(Cc4ccccc4)CC3)c2c1` showed a kinetic solubility of 19.5 µg/mL (≈ 56 µM).
`O=C(O)c1ccc2c(=O)n3c(nc2c1)/C(=C/c1cccc(O)c1)CC3`: the solubility (kinetic) is greater than 50.1 µg/mL.
As for `Cc1ccc(N2CN(CCC3=CCCCC3)CNC2=S)cc1`, the solubility (kinetic) amounted to 5.1 µg/mL (≈ 16.2 µM).
The compound `CCn1c(SCC(=O)NC2CCCCC2)nnc1-c1ccccc1F` registered a solubility (kinetic) greater than 54.4 µg/mL.
The compound `Cl.O[C@@H](c1cc(C(F)(F)F)nc2c(C(F)(F)F)cccc12)[C@H]1CCCCN1` displayed a solubility (kinetic) greater than 62.2 µg/mL.
Consider `Cc1nc2ccccn2c1C(=O)NC1CCCC1`, for which the solubility (kinetic) is greater than 36.5 µg/mL.
Turning to `CCc1nc(SCC(=O)Nc2cccc3ccccc23)[nH]c(=O)c1C`, the solubility (kinetic) came out at 1.8 µg/mL (≈ 5.09 µM).
`Cc1ccc(C)c(OCC(=O)NC2CCCCCC2)c1`: the kinetic solubility turned out to be 3.8 µg/mL (≈ 13.8 µM).
`CCCCn1cnc2c(oc3nc4c(cc32)CCCC4)c1=O` showed a kinetic solubility of 20.6 µg/mL (≈ 69.3 µM).
Compound `N#Cc1ccc(COc2cccc3cccnc23)cc1` registered a solubility (kinetic) of 32.4 µg/mL (≈ 124 µM).
Then `FC(F)(F)Sc1ccc(NC(=S)NCc2ccccc2)cc1`, with less than 0.4 µg/mL.
Next, `O=C(NCCc1ccco1)c1ccc(OCc2cn3ccccc3n2)cc1`: greater than 54.2 µg/mL.
Then `Cc1ccc2nc(-c3ccncc3)cc(C(=O)NCc3ccccc3F)c2c1`, with 2.5 µg/mL (≈ 6.73 µM); and `COc1cccc(NC(=O)CN(C)C(=O)c2ccccn2)c1`, with greater than 44.9 µg/mL.
For `CCn1c(SCC(=O)OC)nnc1-c1ccc(C)cc1`, the solubility (kinetic) was greater than 43.7 µg/mL.
`COc1ccc(C(=O)/C=C/c2cccnc2)c(OC)c1` registered a solubility (kinetic) greater than 40.4 µg/mL.
In turn, `COc1cccc(C(=O)c2c[nH]c(C(=O)NCCCN(C)C)c2)c1` gave a kinetic solubility greater than 49.4 µg/mL.
Next, `CSc1ncccc1C(=O)OCC(=O)NC12CC3CC(CC(C3)C1)C2`: 21.8 µg/mL (≈ 60.5 µM).
`Cc1ccc(C(=O)C2CCN(CC(=O)Nc3ccccc3C)CC2)cc1`: the solubility (kinetic) was determined as 1.7 µg/mL (≈ 4.85 µM).
Next, `CC(C)OCCCNC(=O)Cc1ccc(Br)cc1`: 41.6 µg/mL (≈ 132 µM); `S=C(NC1CC1)N1CCCc2ccccc21`: 33 µg/mL (≈ 142 µM).
In turn, `Cc1cccc(C(=O)NCC(=O)OCC(=O)c2ccc(Br)s2)c1` returned a kinetic solubility greater than 59.4 µg/mL.
Turning to `Cc1nc(SCCc2ccccc2)[nH]c(=O)c1C`, the kinetic solubility is 10.9 µg/mL (≈ 41.9 µM).
As for `O=C(CSc1cccc[n+]1[O-])NC1CCCCCCC1`, the solubility (kinetic) is 39.3 µg/mL (≈ 133 µM).
On to `COc1ccccc1NC(=O)NC(=O)c1ccccc1`, for which the solubility (kinetic) was 0.4 µg/mL (≈ 1.48 µM).
Then `O=c1nccc(N/N=C/c2cccc(O)c2)[nH]1`, with greater than 34.5 µg/mL; and `CCC(C)NC(=O)C1c2ccccc2Oc2ccccc21` (stereo not given), with 1.9 µg/mL (≈ 6.75 µM).
In turn, `O=S(=O)(NCC(O)c1ccccc1)c1ccc(-c2ccccn2)s1` (stereo not given) displayed a kinetic solubility greater than 54.1 µg/mL.
With `O=C1NC(=S)N/C1=C/c1ccc2ccccc2c1`, the kinetic solubility was 0.6 µg/mL (≈ 2.36 µM).
`O=S(=O)(Nc1ccccc1N1CCCCC1)c1ccccc1` had a kinetic solubility of 4.4 µg/mL (≈ 13.9 µM).
Consider `CCOC(=O)c1cncc(C#CCO)c1`, for which the kinetic solubility was greater than 30.8 µg/mL.
Compound `O=C(NCc1ccc(F)cc1)Nc1ccc(Cl)cc1` returned a kinetic solubility of 1.1 µg/mL (≈ 3.95 µM).
For `Clc1ccc2ccc3cccnc3c2n1`, the solubility (kinetic) was greater than 32.2 µg/mL.
For the compound `COc1ccc(C(=O)OCC(=O)NC(=O)NC(C)C)cc1OC`, the solubility (kinetic) is greater than 48.6 µg/mL.
Next, `O=C(NC1CC1)c1cccc(NC(=O)c2cn3ccccc3n2)c1`: greater than 48.1 µg/mL.
Then `N#Cc1ccc(OCC(=O)N2CCCC2=O)cc1`, with greater than 36.6 µg/mL.
For the compound `COc1cccc(/C=C/C(=O)Nc2cccc(C(C)=O)c2)c1OC`, the kinetic solubility turned out to be 4.3 µg/mL (≈ 13.2 µM).
On to `O=C1CN(C(=O)COC(=O)Cc2ccccc2)c2ccccc2N1`, for which the kinetic solubility was greater than 48.7 µg/mL.
Then `Cc1ccc(NC(=O)CCCNC(=O)c2ccc(Cl)cc2)nc1`, with 4.1 µg/mL (≈ 12.4 µM); and `NC(=O)c1ccccc1OCC(=O)N1CCc2ccccc2C1`, with greater than 46.6 µg/mL.
For `Cn1cnc2c(cnn2-c2ccccc2)c1=O`, the kinetic solubility is greater than 33.9 µg/mL.
Next, `Nc1nc(SCc2ccc(F)cc2)ns1`: 33.6 µg/mL (≈ 139 µM); `O=C(c1cc(F)cc2c1OCOC2)N1CCN(c2ccc(F)cc2)CC1`: greater than 54.1 µg/mL.
As for `COC(=O)c1ccc2c(=O)n(-c3ccc(OC)cc3)c(=S)[nH]c2c1`, the solubility (kinetic) stood at 1.5 µg/mL (≈ 4.38 µM).
`COc1ccc(C(=O)O/N=C(\N)c2ccccn2)c(OC)c1` yielded a kinetic solubility greater than 45.2 µg/mL.
Next, `O=C(CN1CCCCC1)Nc1ccc(C(F)(F)F)cc1Cl`: 2.5 µg/mL (≈ 7.79 µM); `COc1ccc2c(c1)C(=O)N(Cc1ccccc1)C(=O)C2(C)C`: 10.5 µg/mL (≈ 33.9 µM); `CN1C(=O)C(CC(=O)O)S/C1=N\N=C\c1ccc(O)cc1O` (stereo not given): greater than 48.5 µg/mL.
Take `O=C(/C=C/c1ccco1)NCCc1ccccc1`: the kinetic solubility was 33.1 µg/mL (≈ 137 µM).
The compound `O=C(CN1C(=O)NC(c2ccccc2)(c2ccccc2)C1=O)NCCNCCO` came in with a kinetic solubility greater than 59.5 µg/mL.
In turn, `Nc1ccncc1N` had a solubility (kinetic) of 12.2 µg/mL (≈ 112 µM).
Compound `O=C(Nc1ccc(O)cc1)c1ccc(NC(=O)c2ccco2)cc1` displayed a kinetic solubility of 1.8 µg/mL (≈ 5.58 µM).
As to `CCCN(CCC)CC(O)COc1ccc2c(c1)OCO2.Cl` (stereo not given), the solubility (kinetic) stood at 45.5 µg/mL.
Regarding `COc1cccc(N2CCN(c3nc(C)cc(=O)[nH]3)CC2)c1`, the solubility (kinetic) stood at 44.6 µg/mL (≈ 148 µM).
As to `O=C1COc2ccc(C(=O)CCl)cc2N1`, the solubility (kinetic) was greater than 33.8 µg/mL.
The compound `C=CCn1c(O)c(/C=C2\C=Nc3ccccc32)c(=O)[nH]c1=O` returned a solubility (kinetic) of 4 µg/mL (≈ 13.5 µM).
Consider `COc1ccc2[nH]cc(CCNC(C)=O)c2c1`, for which the solubility (kinetic) is greater than 34.8 µg/mL.
With `CC(=O)c1cccc(Nc2cc(C)nc3ccccc23)c1.Cl`, the solubility (kinetic) was found to be 27.8 µg/mL.
`COCC(=O)Nc1ccc(Br)cc1C` returned a solubility (kinetic) of 35.8 µg/mL (≈ 139 µM).
Then `O=C(CNC(=O)c1ccc(Br)o1)NCc1ccc(F)cc1`, with greater than 53.3 µg/mL; and `O=C(Cn1cnc([N+](=O)[O-])c1)Nc1ccc(F)c(Cl)c1`, with 5 µg/mL (≈ 16.7 µM); and `CC(C)[C@H](NS(=O)(=O)c1ccccc1)C(=O)OCC(=O)NC1CCCCC1`, with greater than 59.5 µg/mL.
With `CCOCCCNC(=O)c1ccc(C2SCC(=O)N2Cc2ccccc2)cc1` (stereo not given), the kinetic solubility is greater than 59.8 µg/mL.
`CCOc1ccc(NC(=O)C2CC3CCC2C3)cc1` (stereo not given) had a solubility (kinetic) of 6.1 µg/mL (≈ 23.5 µM).
In turn, `Cc1cccc(C(=O)NCCC(=O)Nc2ccc(C#N)cc2)c1` yielded a kinetic solubility of 1.3 µg/mL (≈ 4.23 µM).
On to `NS(=O)(=O)c1ccc(CCNC(=O)c2ccc(=O)[nH]c2)cc1`, for which the kinetic solubility was greater than 48.2 µg/mL.
In turn, `CCCC(C)NC(=O)c1ccccc1SC` (stereo not given) registered a solubility (kinetic) of 34.1 µg/mL (≈ 144 µM).
As for `Cc1nc(C(F)(F)F)ccc1C(=O)Nc1ccccc1F`, the kinetic solubility is greater than 44.7 µg/mL.
Then `CC(CNC(=O)CCc1ccccc1)NC(=O)CCc1ccccc1` (stereo not given), with 19 µg/mL (≈ 56.1 µM); and `COc1ccc(NC(=O)C2CCC2)cc1S(=O)(=O)Nc1cc(C)ccc1Br`, with 1.1 µg/mL (≈ 2.43 µM).
`Cc1ccc(S(=O)(=O)Nc2ccc(Cl)cn2)cc1C`: the solubility (kinetic) stood at 3.4 µg/mL (≈ 11.5 µM).
Next, `Cc1ccc(-c2nc3ccccc3c(=O)o2)cc1`: 1.2 µg/mL (≈ 5.06 µM); `O=C1CSC(c2ccccc2[N+](=O)[O-])N1c1ccc(O)cc1` (stereo not given): greater than 47.4 µg/mL.
On to `Cc1cc(C(=O)Nc2ccc3ccccc3c2)oc1C`, for which the solubility (kinetic) is 3.8 µg/mL (≈ 14.3 µM).
Then `NC(=O)C1CCCCc2c1[nH]c1ccc(Cl)cc21` (stereo not given), with greater than 39.4 µg/mL; and `CC(NC(=O)CN(c1ccc(Br)cc1)S(C)(=O)=O)c1ccccc1` (stereo not given), with greater than 61.7 µg/mL.
Regarding `CCOC(=O)c1sc(NC(=O)C2CC(=O)N(c3ccc(C)cc3)C2)nc1C` (stereo not given), the kinetic solubility came out at 13 µg/mL (≈ 33.6 µM).
In turn, `Cc1ccccc1NC(=O)COc1ccc2c(c1)OC(C)(C)CC2=O` showed a solubility (kinetic) of less than 0.7 µg/mL.
Turning to `O=C(CCC(=O)Nc1ccccc1Cl)NN=C1CCCC1`, the solubility (kinetic) is greater than 46.2 µg/mL.
Compound `CC(=O)c1cc(CN2CCN(CCC(C)C)C(CCO)C2)cs1` (stereo not given) displayed a solubility (kinetic) greater than 50.8 µg/mL.
`Cc1ccc2nc(Cn3cc(C(F)(F)F)ccc3=O)cc(=O)n2c1` had a solubility (kinetic) of 47.4 µg/mL (≈ 141 µM).
With `O=C(O)c1c(-n2cccc2)sc2c1CCCC2`, the solubility (kinetic) was greater than 37.1 µg/mL.
In turn, `Cc1cccnc1NC(=O)CCn1c(=O)oc2ccccc21` yielded a solubility (kinetic) greater than 44.6 µg/mL.
Then `COc1ccc(C(=O)Nc2ccc(C(=O)c3ccccc3)cc2)cc1`, with less than 0.7 µg/mL; and `Cc1nc(NC(=O)COC(=O)CCc2ccccc2)c(Cl)cc1Cl`, with 21.8 µg/mL (≈ 59.4 µM); and `C/C=C/c1ccc(OCC(O)CN2CCCCCCC2)c(OC)c1` (stereo not given), with 35.2 µg/mL (≈ 106 µM).
`Nc1ccc(-c2c3ccccc3nc3ccccc23)cc1` displayed a kinetic solubility of less than 0.3 µg/mL.
Compound `CCc1ccc(C2C(C#N)=C(N)Oc3cc(N)ccc32)cc1` (stereo not given) gave a kinetic solubility of 2.4 µg/mL (≈ 8.24 µM).
Next, `COC(=O)c1sc(SC)c(-c2ccon2)c1C`: less than 0.6 µg/mL; `O=C(COc1ccc(F)cc1)N1CCC(Cc2ccccc2)CC1`: 18.8 µg/mL (≈ 57.4 µM); `CSc1ccc(Cl)c(C(=O)N2CCOc3ccccc32)c1`: 13.5 µg/mL (≈ 42.2 µM).
In the case of `O=C(NCCc1ccccc1)C1CC(=O)N(C2CCCCC2)C1` (stereo not given), the solubility (kinetic) was greater than 47.2 µg/mL.
For `Cc1ccc(C)c(NC(=O)C(C)N2C(=O)c3ccccc3C2=O)c1` (stereo not given), the kinetic solubility amounted to 21 µg/mL (≈ 65.1 µM).
Consider `O=c1[nH]sc2cc(F)ccc12`, for which the solubility (kinetic) was 22.7 µg/mL (≈ 134 µM).

These data come from PubChem BioAssay AID1996.
